Our source for the melting point and IC50 values is US20130022644A1, “NOVEL N-PHENYLACETAMIDE DERIVATIVES, WHICH INHIBIT THE ENZYME SOAT-1, AND PHARMACEUTICAL AND COSMETIC COMPOSITIONS CONTAINING THEM” (GALDERMA RESEACH & DEVELOPMENT, priority 2009, published 2013).

For one data set, the target named is T1, enzyme ACAT-1 (Homo sapiens, UniProt P35610).
T1 construct: endogenous in cells; host or cells: HepG2
T1 sequence (P35610 1-550): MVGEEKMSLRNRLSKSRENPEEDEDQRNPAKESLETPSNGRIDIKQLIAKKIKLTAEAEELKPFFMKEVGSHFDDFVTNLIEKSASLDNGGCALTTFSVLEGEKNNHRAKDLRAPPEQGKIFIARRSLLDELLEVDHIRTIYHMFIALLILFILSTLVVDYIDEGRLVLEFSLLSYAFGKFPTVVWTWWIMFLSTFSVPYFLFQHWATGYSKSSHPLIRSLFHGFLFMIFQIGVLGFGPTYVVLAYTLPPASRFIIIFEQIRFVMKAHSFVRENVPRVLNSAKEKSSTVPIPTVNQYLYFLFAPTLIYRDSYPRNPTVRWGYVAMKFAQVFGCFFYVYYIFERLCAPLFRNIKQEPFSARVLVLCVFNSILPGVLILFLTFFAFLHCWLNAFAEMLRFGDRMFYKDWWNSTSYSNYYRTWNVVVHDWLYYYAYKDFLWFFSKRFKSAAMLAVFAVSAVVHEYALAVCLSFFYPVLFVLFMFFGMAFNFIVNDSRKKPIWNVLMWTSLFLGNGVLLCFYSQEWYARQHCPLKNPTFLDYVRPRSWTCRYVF
Briefly: HepG2 NBD-cholesterol fluorescence test for inhibitory activity towards the enzyme ACAT-1 (SOAT-1). Type of data set: cell-based. The settings on record: HepG2 cells, NBD-cholesterol 1 μg/ml, incubation 6 hours at 37° C., fluorescence ex 490 nm / em 540 nm. The method, then: The compounds (1) according to the invention, and also the pharmaceutically acceptable salts, solvates and/or hydrates thereof, have inhibitory properties on the enzyme SOAT-1. This inhibitory activity on the enzyme SOAT-1 is measured according to a HepG2 primary enzymatic test, as described in Example 3.
The compounds of formula (I) according to the invention were subjected to a test for evaluating their inhibitory activity towards the enzyme ACAT-1, inspired by the following publication: “Identification of ACAT1- and ACAT2-specific inhibitors using a novel, cell based fluorescence assay: individual ACAT uniqueness”, J. Lipid. Res. (2004) vol. 45, pages 378-386.
The principle of this test is based on the use of NBD-cholesterol, a cholesterol analogue whose fluorescence depends on its environment. When this molecule is in a polar environment, it is weakly fluorescent, whereas in a non-polar environment, it is strongly fluorescent. […]
The method below is applied: HepG2 cells are incubated in the presence of NBD-cholesterol (1 μg/ml) and of the test compound of formula (I) in black transparent-bottomed 96-well plates, at a rate of 30 000 cells per well. […] After addition of 50 μl of lysis buffer (10 mM NaPO4, 1% Igepal), the plates are shaken for 5 minutes and the fluorescence is read (excitation at 490 nm, emission at 540 nm) on a Fusion machine (Perkin-Elmer). […]

Molecules are shown by their SMILES.

The melting point is the temperature, or range, at which the solid turns liquid. Usually IC50 stands for the concentration needed to halve the response being measured. Low readings indicate higher potency, high ones lower potency.

`CCCC1(C)C(=O)N(CC(=O)Nc2c(C(C)C)cccc2C(C)C)C(=O)N1c1ccc(C)cc1` (centres unmarked) [Compound 1, N-(2,6-Diisopropylphenyl)-2-(4-methyl-2,5-dioxo-4-propyl-3-p-tolylimidazolidin-1-yl)acetamide] came in with a melting point of 186 °C. This compound also yielded a half-maximal inhibitory concentration (IC50) at enzyme ACAT-1 of 9 nM.
